In patent publication US20100120789A1, “Compound” (priority 2005, published 2010):

Molecular target: Human 11β-HSD1 (Homo sapiens, UniProt P28845)
Assay: 11β-HSD1 HEK assay (whole HEK 293 cells stably transfected with HSD11B1, SPA)
Type: cell-based
Design: expressed in transfected cells; host or cells: HEK 293
Conditions: HEK293, read-out: % INHIBITION of Human 11 β-HSD1 at 10 μM (HEK)
Protocol: 11β-HSD1 HEK Assay Protocol (Cell Based Assay)
11β-HSD1 activity is measured in whole HEK 293 cells stably transfected with the HSD11B1 gene. Cells are incubated in 96-well microplates in the presence of tritiated substrate. Enzyme activity is determined by measuring the amount of tritated product by scintillation proximity assay (SPA). Assay plates contain internal high and low controls to allow calculation of percentage inhibition.
2. When the cells are 80% confluent the medium is removed from each well. 100 μl fresh, serum-free, medium containing ^3H-cortisone and test compound in 1% DMSO is added to each well*. Control wells are also dispensed.
3. The plate is incubated at […] for the required time period.
4. 50 μl of media is removed from each well and transferred to a microplate containing 100 μl of a pre-incubated mixture of anti-cortisol antibody and SPA bead. The mixture is incubated with gentle shaking until equilibrium is reached, before transferring to a scintillation counter to establish the enzyme activity in each sample.
10 μl of compound is dispensed into each well of a 96-well microplate in 10% DMSO at 100 μM concentration. 90 μl media containing ^3H-cortisone is added to each well. The compound/media/substrate mixture is then transferred to the assay plate containing the cells.

Human 11β-HSD1, sequence (P28845 whole entry): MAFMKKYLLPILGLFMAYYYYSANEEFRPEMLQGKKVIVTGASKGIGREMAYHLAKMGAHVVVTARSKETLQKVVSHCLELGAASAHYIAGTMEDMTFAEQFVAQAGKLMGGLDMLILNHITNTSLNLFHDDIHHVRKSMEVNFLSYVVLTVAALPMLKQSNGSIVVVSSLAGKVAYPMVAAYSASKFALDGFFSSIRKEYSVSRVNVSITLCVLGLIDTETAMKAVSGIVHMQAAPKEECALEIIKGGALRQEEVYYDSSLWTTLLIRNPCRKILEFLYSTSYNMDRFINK

Compound	inhibition at 10 µM [%]
O=S(=O)(NC12CC3CC(CC(C3)C1)C2)c1cc(Cl)ccc1Cl [compound 1342]	20 to 60
Cc1c(Cl)cccc1S(=O)(=O)NC12CC3CC(CC(C3)C1)C2 [compound 1343]	20 to 60
Cc1c(Cl)cccc1S(=O)(=O)NCC12CC3CC(CC(C3)C1)C2 [compound 1370]	20 to 60
O=S(=O)(NCC12CC3CC(CC(C3)C1)C2)c1ccc(-c2ccccc2)cc1 [compound 1371]	20 to 60
Cc1nc2cc(NC(=O)CC34CC5CC(CC(C5)C3)C4)ccc2s1 [compound 1566]	20 to 60
O=C(NCc1cccs1)C1CCCCC1 [compound 1638]	20 to 60
CC(C)(C)CC(=O)NCc1cccs1 [compound 1639]	20 to 60
CC(C(=O)NCc1cccs1)(c1ccccc1)c1ccccc1 [compound 1640]	20 to 60
CC1(C(=O)NCc2cccs2)CC1 [compound 1641]	20 to 60
CC1(C(=O)NCc2cccs2)CCCCC1 [compound 1642]	20 to 60
O=C(NCc1cccs1)C12CC3CC(CC1C3)C2 [compound 1648]	> 60
CC(C(=O)NCCc1cccs1)(c1ccccc1)c1ccccc1 [compound 1650]	< 20
O=C(NCCc1cccs1)C1(c2ccc(Cl)cc2)CCCC1 [compound 1651]	< 20
CC(C)(C)CC(=O)NCCc1cccs1 [compound 1652]	20 to 60
CC1(C(=O)NCCc2cccs2)CC1 [compound 1654]	20 to 60
CC1(C(=O)NCCc2cccs2)CCCCC1 [compound 1655]	> 60
O=C(NCCc1cccs1)C12CC3CC(CC1C3)C2 [compound 1656]	> 60
Cc1ccc(Cc2noc(C34CC5CC(CC(C5)C3)C4)n2)cc1 [compound 1660]	20 to 60
CN(Cc1cccs1)C(=O)CC12CC3CC(CC(C3)C1)C2 [compound 1661]	> 60
O=C(CC12CC3CC(CC(C3)C1)C2)NCc1ccco1 [compound 1662]	> 60
Cn1cccc1CNC(=O)CC12CC3CC(CC(C3)C1)C2 [compound 1663]	> 60
Cc1ccc(Cc2noc(CC34CC5CC(CC(C5)C3)C4)n2)cc1 [compound 1664]	20 to 60
CC12CC3CC(C)(C1)CC(C(=O)NCc1cccs1)(C3)C2 [compound 1671]	> 60
CC12CC3CC(C)(C1)CC(C(=O)NCCc1cccs1)(C3)C2 [compound 1672]	> 60
CC(C)(C)C(=O)NCc1cccs1 [compound 1673]	20 to 60
CC(C)(C)C(=O)NCCc1cccs1 [compound 1674]	20 to 60
O=C(NCc1cccs1)C12CC3CC(CC(O)(C3)C1)C2 [compound 1675]	< 20

Same assay, conditions: HEK293; read-out: IC50 (nM) Inhibition of Human 11β-HSD1 (HEK293)

IC50 [nM]	Compound
117	NC(=O)c1ccc(OCC(=O)C23CC4CC(CC(C4)C2)C3)cc1 [Compound 1]
1050	NC(=O)c1cccc(OCC(=O)C23CC4CC(CC(C4)C2)C3)c1 [Compound 9]
68	CNC(=O)c1cccc(OCC(=O)C23CC4CC(CC(C4)C2)C3)c1 [Compound 10]
343	CCNC(=O)c1cccc(OCC(=O)C23CC4CC(CC(C4)C2)C3)c1 [Compound 11]
1220	CC(C)NC(=O)c1cccc(OCC(=O)C23CC4CC(CC(C4)C2)C3)c1 [Compound 12]
94	CNC(=O)Cc1ccc(OCC(=O)C23CC4CC(CC(C4)C2)C3)cc1 [Compound 13]
204	NC(=O)Cc1ccc(OCC(=O)C23CC4CC(CC(C4)C2)C3)cc1 [Compound 15]
912	CCNC(=O)Cc1ccc(OCC(=O)C23CC4CC(CC(C4)C2)C3)cc1 [Compound 16]
250	CNC(=O)c1ccc(COCC(=O)C23CC4CC(CC(C4)C2)C3)cc1 [Compound 18]

Test system: not given
Assay: not given
Conditions: not given

melting point [°C]	Compound
156 to 158	CC(=O)Nc1ccc(NCC(=O)C23CC4CC(CC(C4)C2)C3)cc1 [STX2241, N-[4-(2-Adamantan-1-yl-2-oxo-ethylamino)-phenyl]acetamide]
53.5 to 54.5	CN(Cc1ccco1)C(=O)C12CC3CC(CC(C3)C1)C2 [STX2247, Adamantane-1-carboxylic acid furan-2-ylmethyl-methyl-amide]
87 to 88	Cc1csc(CN(C)C(=O)C23CC4CC(CC(C4)C2)C3)c1 [STX2254, Adamantane-1-carboxylic acid methyl-(4-methyl-thiophen-2-ylmethyl)-amide]
124 to 125	Cn1ccnc1S(=O)(=O)CC(=O)C12CC3CC(CC(C3)C1)C2 [STX2294, 1-Adamantan-1-yl-2-(1-methyl-1H-imidazole-2-sulfonyl)-ethanone]
117.5 to 119	O=C(CS(=O)(=O)c1cccs1)C12CC3CC(CC(C3)C1)C2 [STX2295, 1-Adamantan-1-yl-2-(thiophene-2-sulfonyl)-ethanone]
204.5 to 205.5	Cc1c(C(=O)CS(=O)(=O)Cc2ccc(Cl)cc2)sc2ccc(Cl)cc12 [STX2296, 1-(5-Chloro-3-methyl-benzo[b]thiophen-2-yl)-2-(4-chloro-phenylmethanesulfonyl)-ethanone]
151 to 151.5	CC(=O)Nc1ccc(S(=O)(=O)CC(=O)C23CC4CC(CC(C4)C2)C3)cc1 [STX2298, N-[4-(2-Adamantan-1-yl-2-oxo-ethanesulfonyl)-phenyl]-acetamide]
95.5 to 98	O=C(CS(=O)(=O)Cc1cccs1)C12CC3CC(CC(C3)C1)C2 [STX2299, 1-Adamantan-1-yl-2-(thiophen-2-ylmethanesulfonyl)-ethanone]
150 to 152	O=C(NCc1ccc(Cl)cc1)C1CCN(C(=O)C23CC4CC(CC(C4)C2)C3)CC1 [STX2306, 1-(Adamantane-1-carbonyl)-piperidine-4-carboxylic acid 4-chloro-benzylamide]
185.2	O=C(O)c1ccc(OCC(=O)C23CC4CC(CC(C4)C2)C3)cc1 [STX2318, 4-(2-Adamantan-1-yl-2-oxo-ethoxy)-benzoic acid]
71.9	COC(=O)Cc1ccc(OCC(=O)C23CC4CC(CC(C4)C2)C3)cc1 [STX2320, [4-(2-Adamantan-1-yl-2-oxo-ethoxy)-phenyl]-acetic acid methyl ester]
156.2	O=C(O)c1cccc(OCC(=O)C23CC4CC(CC(C4)C2)C3)c1 [STX2361, 3-(2-Adamantan-1-yl-2-oxo-ethoxy)-benzoic acid]
153.4	O=C(O)Cc1ccc(OCC(=O)C23CC4CC(CC(C4)C2)C3)cc1 [STX2364, [4-(2-Adamantan-1-yl-2-oxo-ethoxy)-phenyl]-acetic acid]
103.9	CCN(CC)C(=O)c1ccc(OCC(=O)C23CC4CC(CC(C4)C2)C3)cc1 [STX2375, 4-(2-Adamantan-1-yl-2-oxo-ethoxy)-N,N-diethyl-benzamide]
54 to 55	CCc1ccc(CN(C)C(=O)CC23CC4CC(CC(C4)C2)C3)s1 [STX2394, 2-Adamantan-1-yl-N-(5-ethyl-thiophen-2-ylmethyl)-N-methyl-acetamide]
86 to 88.5	CN(Cc1cc(Br)cs1)C(=O)CC12CC3CC(CC(C3)C1)C2 [STX2396, 2-Adamantan-1-yl-N-(4-bromo-thiophen-2-ylmethyl)-N-methyl-acetamide]
129 to 131	O=C(Nc1cccnc1)C12CC3CC(CC(C3)C1)C2 [STX2399, Adamantane-1-carboxylic acid pyridin-3-ylamide]
200 to 201	O=C(Nc1nccs1)C12CC3CC(CC(C3)C1)C2 [STX2401, Adamantane-1-carboxylic acid thiazol-2-ylamide]
119 to 121	O=C(CC12CC3CC(CC(C3)C1)C2)N1CCN(Cc2ccc(Cl)cc2)CC1 [STX2402, 2-Adamantan-1-yl-1-[4-(4-chloro-benzyl)-piperazin-1-yl]-ethanone]
86 to 88	Cc1cccc(CN2CCN(C(=O)CC34CC5CC(CC(C5)C3)C4)CC2)c1 [STX2403, 2-Adamantan-1-yl-1-[4-(3-methyl-benzyl)-piperazin-1-yl]-ethanone]
112.5 to 115	O=C(CC12CC3CC(CC(C3)C1)C2)N1CCN(c2ccc(Cl)cc2)CC1 [STX2404, 2-Adamantan-1-yl-1-[4-(4-chloro-phenyl)-piperazin-1-yl]-ethanone]
69 to 71	CN(Cc1ccsc1)C(=O)CC12CC3CC(CC(C3)C1)C2 [STX2406, 2-Adamantan-1-yl-N-methyl-N-thiophen-3-ylmethyl-acetamide]
75 to 76.5	CN(Cc1cccn1C)C(=O)CC12CC3CC(CC(C3)C1)C2 [STX2407, 2-Adamantan-1-yl-N-methyl-N-(1-methyl-1H-pyrrol-2-ylmethyl)-acetamide]
67 to 68.5	CN(Cc1cccnc1)C(=O)CC12CC3CC(CC(C3)C1)C2 [STX2409, 2-Adamantan-1-yl-N-methyl-N-pyridin-3-ylmethyl-acetamide]
145.5 to 147	O=C(NCc1cccc([N+](=O)[O-])c1)C12CC3CC(CC(C3)C1)C2 [STX2411, Adamantane-1-carboxylic acid 3-nitro-benzylamide]
